Assay results as given in publication PMC4666006 (European journal of cancer (Oxford, England : 1990), 2013).
Blank lines part the entries; values can stand above or below the compound they belong to.

Key:
patients with RCC = details: cited from earlier work
[1] = test system: patients with advanced RCC; assay: Treatment-emergent adverse events; type: in vivo; details: all 27 patients
[2] = Pharmacokinetic assessments; type: in vivo, patients; details: for Tmax / AUC(0-t) / Cmax: human, serum
[3] = test system: patients with advanced RCC; assay: 3 + 3 dose-escalation: dose-limiting toxicities and recommended phase II dose; type: in vivo
[4] = cited from earlier work
[5] = test system: patients with advanced RCC; details: cited from earlier work
[6] = test system: patients with advanced renal cell cancer; details: ongoing randomised phase III trial; cited from earlier work
[7] = test system: patients with advanced RCC; details: phase III; cited from earlier work

Compound: CNC(=O)c1ccccc1Sc1ccc2c(/C=C/c3ccccn3)n[nH]c2c1 [axitinib]
Grade 3/4 hypertension, patients (patients with RCC): 16% | Incidence of hypertension (patients with RCC): 40%

Compound: COc1cc2nccc(Oc3ccc(NC(=O)Nc4cc(C)on4)c(Cl)c3)c2cc1OC [tivozanib]
Patients with ≥1 dose reduction/interruption of the drug [1]: 59% | Tmax ([2]; oral, […]): 17.3 h | Recommended phase II dose (RP2D), tivozanib ([3]; orally, 3 weeks on/1 week off, in combination with temsirolimus): 1.5 mg/day | half-life [4]: ~ 4.5 d | Hypertension, treatment-related event, patients ([5]; phase II, advanced RCC): 45% | Fatigue, treatment-related event, patients ([5]; tivozanib monotherapy, phase II, advanced RCC): 8% | Grade 3 hypertension, patients ([5]; tivozanib phase II trial): 11% | Grade 4 hypertension, patients ([5]; tivozanib phase II trial): 1% | progression-free survival [6]: 11.9 months

Ratio of sirolimus AUC0–last /temsirolimus AUC0–last, mean (SD) ([2]; day 22, Temsirolimus 15 mg/week): 1.26 (0.67) | Ratio of sirolimus AUC0–last /temsirolimus AUC0–last, mean (SD) ([2]; day 22, Temsirolimus 25 mg/week): 1.48 (0.66) | AUC(0-t) ([2]; intravenous, 15 mg/week): 3560 ng·h/mL | Cmax ([2]; intravenous, 15 mg/week): 51.3 ng/mL | Tmax ([2]; intravenous, 15 mg/week): 3.18 h | AUC(0-t) ([2]; intravenous, 25 mg/week): 6570 ng·h/mL | Cmax ([2]; intravenous, 25 mg/week): 93.8 ng/mL | Tmax ([2]; intravenous, 25 mg/week): 1.81 h
Compound: CO[C@H]1C[C@@H]2CC[C@@H](C)[C@@](O)(O2)C(=O)C(=O)N2CCCC[C@H]2C(=O)O[C@H]([C@H](C)C[C@@H]2CC[C@@H](O)[C@H](OC)C2)CC(=O)[C@H](C)/C=C(\C)[C@@H](O)[C@@H](OC)C(=O)[C@H](C)C[C@H](C)/C=C/C=C/C=C/1C [Sirolimus, sirolimus]

Compound: CO[C@H]1C[C@@H]2CC[C@@H](C)[C@@](O)(O2)C(=O)C(=O)N2CCCC[C@H]2C(=O)O[C@H]([C@H](C)C[C@@H]2CC[C@@H](OC(=O)C(C)(CO)CO)[C@H](OC)C2)CC(=O)[C@H](C)/C=C(\C)[C@@H](O)[C@@H](OC)C(=O)[C@H](C)C[C@H](C)/C=C/C=C/C=C/1C [temsirolimus]
Patients with ≥1 dose reduction/interruption of the drug [1]: 63% | AUC(0-t) ([2]; intravenous, 15 mg/week): 3190 ng·h/mL | Cmax ([2]; intravenous, 15 mg/week): 164 ng/mL | Tmax ([2]; intravenous, 15 mg/week): 2.32 h | AUC(0-t) ([2]; intravenous, 25 mg/week): 4240 ng·h/mL | Cmax ([2]; intravenous, 25 mg/week): 200 ng/mL | Tmax ([2]; intravenous, 25 mg/week): 1.81 h | Recommended phase II dose (RP2D), temsirolimus ([3]; intravenously, in combination with tivozanib): 25 mg/week | Fatigue, temsirolimus-related TEAE [7]: 51%

Compound: CCN(CC)CCNC(=O)c1c(C)[nH]c(/C=C2\C(=O)Nc3ccc(F)cc32)c1C [sunitinib]
Grade 3 hypertension, patients (patients with RCC): 8% | Grade 4 hypertension, patients (patients with RCC): 0% | Incidence of hypertension (patients with RCC): 24%

Compound: Cc1ccc(Nc2nccc(N(C)c3ccc4c(C)n(C)nc4c3)n2)cc1S(N)(=O)=O [pazopanib]
Grade 3 hypertension, patients (patients with RCC): 4% | Grade 4 hypertension, patients (patients with RCC): 0% | Incidence of hypertension (patients with RCC): 40%

Compound: CNC(=O)c1cc(Oc2ccc(NC(=O)Nc3ccc(Cl)c(C(F)(F)F)c3)cc2)ccn1 [sorafenib]
progression-free survival [6]: 9.1 months | Grade 3/4 hypertension, patients (patients with RCC): 4–11% | Incidence of hypertension (patients with RCC): 17–29%
